Measurements taken from US20220184008A1, “MODULATORS OF INTRACELLULAR CHLORIDE CONCENTRATION” (FONDAZIONE ISTITUTO ITALIANO DI TECNOLOGIA, priority 2019, published 2022).

Target: T1, NKCC2 (Homo sapiens, UniProt Q13621)
T1 construct: expressed in transfected cells; host or cells: HEK293
T1 sequence (Q13621 1-1099): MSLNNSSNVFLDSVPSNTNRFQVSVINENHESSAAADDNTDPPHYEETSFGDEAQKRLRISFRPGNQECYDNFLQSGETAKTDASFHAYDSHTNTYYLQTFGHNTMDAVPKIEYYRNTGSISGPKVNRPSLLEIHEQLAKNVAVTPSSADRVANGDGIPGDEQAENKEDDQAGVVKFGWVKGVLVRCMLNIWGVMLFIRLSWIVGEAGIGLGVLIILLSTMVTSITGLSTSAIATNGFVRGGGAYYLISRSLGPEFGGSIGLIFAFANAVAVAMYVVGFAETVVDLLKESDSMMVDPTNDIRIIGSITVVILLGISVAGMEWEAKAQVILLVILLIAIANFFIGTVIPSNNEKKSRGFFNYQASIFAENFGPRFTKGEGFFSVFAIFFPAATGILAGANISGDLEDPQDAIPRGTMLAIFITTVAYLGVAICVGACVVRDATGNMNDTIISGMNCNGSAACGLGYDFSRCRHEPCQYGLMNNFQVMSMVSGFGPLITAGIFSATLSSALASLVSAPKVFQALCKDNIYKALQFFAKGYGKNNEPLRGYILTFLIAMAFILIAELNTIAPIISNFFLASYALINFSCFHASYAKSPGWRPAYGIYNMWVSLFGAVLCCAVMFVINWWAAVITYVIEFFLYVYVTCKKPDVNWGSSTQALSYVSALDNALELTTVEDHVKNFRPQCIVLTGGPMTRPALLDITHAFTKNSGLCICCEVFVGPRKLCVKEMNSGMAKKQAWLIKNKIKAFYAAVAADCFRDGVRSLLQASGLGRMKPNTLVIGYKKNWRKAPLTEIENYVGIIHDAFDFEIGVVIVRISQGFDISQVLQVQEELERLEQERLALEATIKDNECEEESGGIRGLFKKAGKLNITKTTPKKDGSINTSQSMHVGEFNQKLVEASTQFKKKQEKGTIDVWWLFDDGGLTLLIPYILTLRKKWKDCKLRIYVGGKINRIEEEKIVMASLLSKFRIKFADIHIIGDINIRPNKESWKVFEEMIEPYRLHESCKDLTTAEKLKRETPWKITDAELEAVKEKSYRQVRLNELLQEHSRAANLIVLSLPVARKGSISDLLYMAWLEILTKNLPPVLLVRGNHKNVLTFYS
Assay: Thallium-based assay in NKCC2-transfected HEK293 cells
Type: cell-based
Text: The Thallium-based assay is a standard assay used to measure activity of potassium transporters, like NKCC2 which is a sodium potassium and chloride co-transporter. The assay consists on the monitoring of the cells upon the application of thallium (which mimic K^+) and consequently NaCl, which entering into cells by NKCC2, activated by the presence of the chloride ions, binds the fluorescent dye, thus determining a fluorescence increase. This assay involves parallel testing in 96 wells for a quick and easy drug screening. In detail, kidney epithelial cells (HEK293) were transfected with NKCC2 transporters, or a mock construct (control). After two days, the cells were loaded with a thallium-sensitive fluorescent dye in a Cl-free medium. After 1 hour of incubation, the inhibitory activity of bumetanide and furosemide (as positive controls) and the new compounds by monitoring fluorescence upon application of thallium (to mimic K) and subsequently NaCl were tested. When entering cells by NKCC2 (activated by the presence of Cl), thallium binds the fluorescent dye and increases fluorescence. […] A decreased fluorescence in the mock-transfected cells treated with bumetanide and furosemide was observed. […] This latter result was used to normalize the fluorescence measurements obtained with the assay. In particular, the ΔF/F0 value of the mock-transfected cells (both control and treated) was subtracted from the respective ΔF/F0 value of the cells transfected with the Cl transporters. With this assay, the novel chemical entities were tested for their ability to block NKCC2 (Results in Table 2).
The arrow indicates the addition of thallium (final concentration 2 mM) and NaCl stimulus (135 mM) used to initiate the flux assay. b) Quantification of the effect of bumetanide, furosemide and 3 example compounds (3.8, 3.13, 3.17) in the thallium-based assay on NKCC2-transfected HEK293 cells. Data represents mean±sem from 5 independent experiments, and they are represented as % of the controls. *P<0.05, **P<0.01, ***P<0.001 Kruskal-Wallis Anova (Dunn's Post hoc Test); ###P<0.001 two-tailed unpaired Student t-test.

[1] = 10 μM, NKCC2-transfected HEK293, Table 2

Compound | inhibition at 10 µM [1] [%] | also measured
CC(C)(C)CCNc1cc(Cl)c(C(=O)O)cc1S(N)(=O)=O [Compound 2.5, 2-chloro-4-(3,3-dimethylbutylamino)-5-sulfamoyl-benzoic acid] | 0 | 
CC(C)(C)CCNc1ccc(C(=O)O)cc1S(N)(=O)=O [Compound 2.9, 4-(3,3-dimethylbutylamino)-3-sulfamoyl-benzoic acid] | 23 | 
CCCCCCNc1ccc([N+](=O)[O-])cc1S(N)(=O)=O [Compound 1.7, 2-(hexylamino)-5-nitro-benzenesulfonamide] | 10 | 
CCCCNc1ccc([N+](=O)[O-])cc1S(N)(=O)=O [Compound 1.6, 2-(butylamino)-5-nitro-benzenesulfonamide] | 4 | 
CC(C)(C)CCNc1ccc([N+](=O)[O-])cc1S(N)(=O)=O [Compound 1.9, 2-(3,3-dimethylbutylamino)-5-nitro-benzenesulfonamide] | 0 | 
CN(C)S(=O)(=O)c1cc(C(=O)O)ccc1NCCC(C)(C)C [Compound 3.14, 4-(3,3-dimethylbutylamino)-3-(dimethylsulfamoyl)benzoic acid] | 0 | 
CCCCNc1cc(Cl)c(C(=O)O)cc1S(N)(=O)=O [Compound 2.2, 4-(butylamino)-2-chloro-5-sulfamoyl-benzoic acid] | 0 | 
CCCCCCNc1ccc([N+](=O)[O-])cc1S(=O)(=O)N(C)C [Compound 1.15, 2-(hexylamino)-N,N-dimethyl-5-nitro-benzenesulfonamide] | 0 | 
CCCCNc1ccc([N+](=O)[O-])cc1S(=O)(=O)NC [Compound 1.10, 2-(butylamino)-N-methyl-5-nitro-benzenesulfonamide] | 0 | 
CN(C)S(=O)(=O)c1cc([N+](=O)[O-])ccc1NCCC(C)(C)C [Compound 1.17, 2-(3,3-dimethylbutylamino)-N,N-dimethyl-5-nitro-benzenesulfonamide] | 13 | 
CCCCCCCCNc1cc(Cl)c(C(=O)O)cc1S(N)(=O)=O [Compound 2.4, 2-chloro-4-(octylamino)-5-sulfamoyl-benzoic acid] | 16 | 
CCCCNc1ccc(C(=O)O)cc1S(=O)(=O)N(C)C [Compound 3.11, 4-(butylamino)-3-(dimethylsulfamoyl)benzoic acid] | 0 | 
CCCCCCCCNc1ccc([N+](=O)[O-])cc1S(=O)(=O)N(C)C [Compound 1.16, N,N-dimethyl-5-nitro-2-(octylamino)benzenesulfonamide] | 0 | 
Furosemide [reference compound] |  | NKCC2 Inhibition % 10 μM Thallium Assay [1]: 0%
CCCCNc1ccc(C(=O)O)cc1S(=O)(=O)NC [Compound 3.6, 4-(butylamino)-3-(methylsulfamoyl)benzoic acid] | 22 | 
CNS(=O)(=O)c1cc(C(=O)O)ccc1NCCC(C)(C)C [Compound 3.9, 4-(3,3-dimethylbutylamino)-3-(methylsulfamoyl)benzoic acid] | 12 | 

Compound | inhibition at 10 µM [1] [%] | also measured
CCCCCCCCNc1ccc(C(=O)O)cc1S(N)(=O)=O [Compound 2.8, 4-(octylamino)-3-sulfamoyl-benzoic acid] | 0 | 
CNS(=O)(=O)c1cc([N+](=O)[O-])ccc1NCCC(C)(C)C [Compound 1.13, 2-(3,3-dimethylbutylamino)-N-methyl-5-nitro-benzenesulfonamide] | 0 | 
CCCCCCNc1ccc(C(=O)O)cc1S(=O)(=O)NC [Compound 3.7, 4-(hexylamino)-3-(methylsulfamoyl)benzoic acid] | 8 | 
CCCCNc1ccc([N+](=O)[O-])cc1S(=O)(=O)N(C)C [Compound 1.14, 2-(butylamino)-N,N-dimethyl-5-nitro-benzenesulfonamide] | 0 | 
CCCCCCCCNc1ccc(C(=O)O)cc1S(=O)(=O)NC [Compound 3.8, 3-(methylsulfamoyl)-4-(octylamino)benzoic acid] | 0 | 
CCCCNc1cc(C(=O)O)cc(S(N)(=O)=O)c1Oc1ccccc1 [Bumetanide, reference compound] | 99 | ion flux and consequent increase in fluorescence in NKCC2-transfected cells (pre-incubation 10 μM): significantly reduced
CCCCNc1ccc(C(=O)O)cc1S(N)(=O)=O [Compound 2.6, 4-(butylamino)-3-sulfamoyl-benzoic acid] | 0 | 
CN(C)S(=O)(=O)c1cc(C(=O)O)ccc1NCCCCCCCC(F)(F)F [Compound 3.17, 3-(dimethylsulfamoyl)-4-(8,8,8-trifluorooctylamino) benzoic acid] | 0 | NKCC1/NKCC2 selectivity (among compounds of the invention): highest
CCCCCCNc1ccc(C(=O)O)cc1S(N)(=O)=O [Compound 2.7, 4-(hexylamino)-3-sulfamoyl-benzoic acid] | 0 | 
CCCCCCCCNc1ccc(C(=O)O)cc1S(=O)(=O)N(C)C [Compound 3.13, 3-(dimethylsulfamoyl)-4-(octylamino)benzoic acid] | 0 | 
CCCCCCNc1cc(Cl)c(C(=O)O)cc1S(N)(=O)=O [Compound 2.3, 2-chloro-4-(hexylamino)-5-sulfamoyl-benzoic acid] | 14 | 
CCCCCCCCNc1ccc([N+](=O)[O-])cc1S(=O)(=O)NC [Compound 1.12, N-methyl-5-nitro-2-(octylamino)benzenesulfonamide] | 0 | 
CCCCCCNc1ccc(C(=O)O)cc1S(=O)(=O)N(C)C [Compound 3.12, 3-(dimethylsulfamoyl)-4-(hexylamino)benzoic acid] | 29 | 
CCCCCCCCNc1ccc([N+](=O)[O-])cc1S(N)(=O)=O [Compound 1.8, 5-nitro-2-(octylamino)benzenesulfonamide] | 10 | 
CCCCCCNc1ccc([N+](=O)[O-])cc1S(=O)(=O)NC [Compound 1.11, 2-(hexylamino)-N-methyl-5-nitro-benzenesulfonamide] | 0 | 
